The source of these data is ChEMBL document CHEMBL1125706, “An approach to the design of receptor-type-selective non-peptide antagonists of peptidergic receptors: delta opioid antagonists” (J Med Chem, 1991).

Non-standard residues stand in square brackets, D forms with d. Residues, ends and D or L forms follow the SMILES beside them. *: point of attachment. Tyr(Nα,Nα-allyl2) = C=CCN(CC=C)[C@@H](Cc1ccc(O)cc1)C(=O)*; Aib = CC(C)(N)C(=O)O

Experiment [1] has as its target T1, Opioid receptors; delta & kappa (Homo sapiens) (UniProt P41145+P41143). As to the kind of experiment: Ke selectivity ratio (kappa/delta) of the compound. Format: protein assay.
For experiment [2], the target named is T2, Opioid receptors; mu & delta (Homo sapiens) (UniProt P41143+P35372). As to the kind of experiment: Ke selectivity ratio (mu/delta) of the compound. Format: protein assay.
T2 sequence (P35372 whole entry, looked up): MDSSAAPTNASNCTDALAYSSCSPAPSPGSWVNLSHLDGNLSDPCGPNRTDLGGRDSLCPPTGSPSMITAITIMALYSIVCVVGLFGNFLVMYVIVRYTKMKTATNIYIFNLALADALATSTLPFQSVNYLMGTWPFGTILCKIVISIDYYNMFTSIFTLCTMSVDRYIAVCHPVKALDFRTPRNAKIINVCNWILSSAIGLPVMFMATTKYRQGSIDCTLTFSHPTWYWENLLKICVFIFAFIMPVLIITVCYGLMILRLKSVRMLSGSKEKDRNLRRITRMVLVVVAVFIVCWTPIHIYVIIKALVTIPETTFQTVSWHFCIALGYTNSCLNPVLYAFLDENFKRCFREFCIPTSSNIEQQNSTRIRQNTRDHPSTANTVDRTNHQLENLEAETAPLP
T2 sequence (P41143 whole entry, looked up): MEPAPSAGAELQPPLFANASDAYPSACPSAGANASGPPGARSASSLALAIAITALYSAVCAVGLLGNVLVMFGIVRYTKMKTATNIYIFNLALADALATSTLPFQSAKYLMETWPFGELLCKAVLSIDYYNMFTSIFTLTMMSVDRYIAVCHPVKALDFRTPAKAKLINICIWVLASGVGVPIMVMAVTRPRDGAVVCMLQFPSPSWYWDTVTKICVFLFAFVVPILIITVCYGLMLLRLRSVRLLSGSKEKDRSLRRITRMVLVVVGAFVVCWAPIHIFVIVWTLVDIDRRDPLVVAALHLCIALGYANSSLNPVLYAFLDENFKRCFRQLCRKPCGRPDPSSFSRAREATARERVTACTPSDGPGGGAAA
Experiment [3] addresses T2, Opioid receptors; mu & delta (Homo sapiens). As to the kind of experiment: Ki selectivity ratio (mu/delta) of the compound. Format: protein assay.
The target in experiment [4] is T1, Opioid receptors; delta & kappa (Homo sapiens). Description: Ki selectivity ratio (kappa/delta) of the compound. The class given is protein assay.
For experiment [5], the target named is Kappa-type opioid receptor (Cavia porcellus, UniProt P41144). Description: Compound was evaluated for binding affinity of Opioid receptor kappa 1 in guinea pig brain membranes. The class given is cell membranes, Membrane.
Chain of Kappa-type opioid receptor (P41144 whole entry): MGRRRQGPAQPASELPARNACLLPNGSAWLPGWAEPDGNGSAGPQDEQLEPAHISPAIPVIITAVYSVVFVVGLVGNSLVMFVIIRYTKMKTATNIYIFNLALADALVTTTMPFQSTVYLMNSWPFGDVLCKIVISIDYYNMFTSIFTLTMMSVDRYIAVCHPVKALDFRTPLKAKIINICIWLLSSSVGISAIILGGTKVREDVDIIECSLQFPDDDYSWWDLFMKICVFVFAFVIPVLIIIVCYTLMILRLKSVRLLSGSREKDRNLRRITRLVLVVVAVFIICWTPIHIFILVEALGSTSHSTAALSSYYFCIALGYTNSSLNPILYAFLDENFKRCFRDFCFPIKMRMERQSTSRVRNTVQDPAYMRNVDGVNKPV
The target in experiment [6] is Delta-type opioid receptor (Mus musculus) (UniProt P32300). Description: Compound was evaluated for antagonist potency in the mouse vas deferens preparation using [D-Ala2,D-Leu5]enkephalin (Opioid receptor delta 1). Format: functional.
Chain of Delta-type opioid receptor (Mus musculus) (P32300 whole entry): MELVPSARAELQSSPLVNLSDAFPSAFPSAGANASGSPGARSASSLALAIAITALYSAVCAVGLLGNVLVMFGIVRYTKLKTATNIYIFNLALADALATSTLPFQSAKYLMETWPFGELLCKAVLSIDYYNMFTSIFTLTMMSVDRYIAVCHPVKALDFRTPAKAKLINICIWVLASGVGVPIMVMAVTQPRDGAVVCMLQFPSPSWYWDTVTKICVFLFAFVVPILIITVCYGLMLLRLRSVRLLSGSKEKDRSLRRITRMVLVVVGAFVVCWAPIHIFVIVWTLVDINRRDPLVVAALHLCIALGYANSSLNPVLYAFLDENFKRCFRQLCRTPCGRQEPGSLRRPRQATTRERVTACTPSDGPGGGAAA

T1 sequence (P41143 whole entry, looked up): as the sequence (P41143 whole entry, looked up) above
T1 sequence (P41145 whole entry, looked up): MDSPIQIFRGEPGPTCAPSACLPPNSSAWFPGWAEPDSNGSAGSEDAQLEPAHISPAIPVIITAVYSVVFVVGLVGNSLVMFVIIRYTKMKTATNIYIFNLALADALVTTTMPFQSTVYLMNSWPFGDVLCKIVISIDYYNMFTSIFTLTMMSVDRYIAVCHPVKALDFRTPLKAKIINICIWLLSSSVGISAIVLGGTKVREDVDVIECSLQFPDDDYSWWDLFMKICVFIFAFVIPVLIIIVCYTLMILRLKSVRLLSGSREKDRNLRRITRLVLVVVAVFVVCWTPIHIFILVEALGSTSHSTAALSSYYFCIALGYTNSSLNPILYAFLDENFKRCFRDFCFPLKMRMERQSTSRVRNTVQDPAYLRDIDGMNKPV

`C=CCN(CC=C)[C@@H](Cc1ccc(O)cc1)C(=O)NC(C)(C)C(=O)NC(C)(C)C(=O)N[C@@H](Cc1ccccc1)C(=O)N[C@@H](CC(C)C)C(=O)O` ({Tyr(Nα,Nα-allyl2)}-[Aib][Aib]FL-OH): the Selectivity ratio was more than 18 in experiment [1], more than 24 in experiment [2], more than 29 in experiment [3] and more than 29 in experiment [4].

On to `Oc1ccc2c3c1O[C@H]1c4oc5ccccc5c4C[C@@]4(O)[C@@H](C2)N(CC2CC2)CC[C@]314` [NALTRIBEN], for which, in experiment [5], the affinity corresponds to a Ki of 152 nM. In experiment [6], this compound gave a Ke of 0.27 nM.

What is called Ki is a dissociation constant, usually derived from enzyme kinetics or from competition with a known ligand. Read a high Ki as weaker binding.
